From publication PMC4650734, “FV-162 is a novel, orally bioavailable, irreversible proteasome inhibitor with improved pharmacokinetics displaying preclinical efficacy with continuous daily dosing” (Cell Death & Disease, 2015)

How the values were obtained:
[1] = tested on: CD138- normal hematopoietic cells; experiment: Annexin V flow cytometry viability of primary bone marrow mononuclear cells, normal fraction; format: cell-based, human; conditions: 48 h; for sensitivity of CD138- normal hematopoietic cells: concentrations ⩽0.1 μM for FV-162, similar concentrations for ONX-0912
Procedure: Human multiple myeloma cell lines 8226, H929, JJN3, KMH11, KMS11, KMS18, LP1, MM.1 S, OPM2, and U266 were grown in Iscove's modified Dulbecco's medium (IMDM). Cell lines were authenticated with short tandem repeat method in September 2011. In addition, cell lines were continually monitored by morphological inspection. Primary mononuclear cells were isolated from peripheral blood or bone marrow samples from multiple myeloma patients at the Princess Margaret Cancer Centre (Toronto, ON, Canada) by Ficoll density gradient centrifugation and cultured in IMDM. All cell culture media were obtained from the Ontario Cancer Institute Tissue Culture Media Facility (Toronto, ON, Canada) and were supplemented with 10% fetal calf serum, 100 μg/ml penicillin, and 100 μg/ml streptomycin (Hyclone, Logan, UT, USA). […] Cellular viability was primarily assessed by MTS assay according to the manufacturer's instructions (Promega, Madison, WI, USA). Ten thousand cells per well were seeded in triplicate in tissue culture-treated 96-well plates. Two hours after seeding, cells were treated with proteasome inhibitors for 72 h (0.01–10 μM) or DMSO vehicle control. Cell viability was independently confirmed by reading the optical density at 490 nm and by exclusion of trypan blue stain (Invitrogen, Burlington, ON, Canada). Viability of primary mononuclear cells was determined by Annexin V–fluorescein isothiocyanate and propidium iodide co-staining (Biovision Research Products, Mountain View, CA, USA) using flow cytometry according to the manufacturer's instructions after 48 h of treatment with inhibitors or vehicle control.

CT-L proteasome activity = CT-L proteasome activity in RBCs of treated mice; format: in vivo, mouse; conditions: for duration of inhibition of proteasome activity in isolated RBCs: after single oral treatment of mice; for inhibition of CT-L activity in RBCs compared with ONX-0912 (30 mg/kg): up to 24 h postdose
Procedure: (§1) Cells were harvested by centrifugation at 1200 r.p.m. at room temperature. Cell pellets were washed with PBS and lysed with assay lysis buffer (50 mM HEPES (2-[4-(2-hydroxyethyl) piperazin-1-yl]ethanesulfonic acid)), pH 7.5; 150 mM NaCl; 1% Triton X-100; 2 mM ATP). Cell lysates were incubated on ice for 30 min, mixed by vortex every 5 min, and centrifuged at 12 000 × g for 10 min. Supernatants were transferred to a 96-well plate in triplicate. For each assay, 10 μg of total protein were incubated for 1 h at 37 °C with increasing concentrations (0.001–10 μM) of test compound or vehicle control diluted in assay buffer (50 mM Tris-HCl (tris(hydroxymethyl)aminomethane-HCl), pH 7.5; 150 mM NaCl). After incubation, a specific fluorogenic proteasome substrate was added to each assay reaction (40 μM in a total volume of 100 μl). N-Succinyl-Leu-Leu-Val-Tyr-7-amino-4-methylcoumarin (Suc-Leu-Leu-Val-Tyr-AMC) was used for measuring CT-L activity, t-butoxycarbonyl- Leu-Arg-Arg-7-amino-4-methylcoumarin (Boc-Leu-Arg-Arg-AMC) for T-L activity, and benzyloxycarbonyl-L-leucyl-L-leucyl-L-glutamyl-7-amino-4-methylcoumarin (Z-Leu-Leu-Glu-AMC) for C-L activity. The excitation wavelength was 360 nm and the fluorescence emission of free AMC released during the enzymatic reaction was detected at 460 nm on a SpectraMax M5 fluorescent spectrophotometric plate reader (Molecular Devices, Sunnyvale, CA, USA). AMC release rate was measured at 37 °C in a kinetic mode, recording every 5 min for 30 min.
Five-to-six-week-old male NOD/SCID mice were administered vehicle (5% DMSO, 20% Cremophor) or proteasome inhibitors either intravenously or by oral gavage (3 mice per group), and 20–50 μl of venous blood were collected from each mouse over 24 h. Blood samples were mixed with heparin (APP Pharmaceuticals; Schaumburg, IL, USA) in 0.5-ml tubes in accordance with the manufacturer's instructions. After centrifugal separation at 3000 × g for 10 min, RBCs in the bottom layer were transferred into a new tube and stored at −70 °C until use. RBCs were lysed with assay lysis buffer and incubated on ice for 30 min, mixing by vortex every 5 min, and centrifuged at 12 000 × g for 10 min. Supernatants were transferred to a 96-well plate and proteasome activity was measured as described in 'Cell lysates' section.

CT-L proteasome subunit = experiment: CT-L proteasome activity in whole cell lysates of human myeloma cell lines (Suc-Leu-Leu-Val-Tyr-AMC); format: biochemical
Procedure: as §1, with “N-Succinyl-Leu-Leu-Val-Tyr-7-amino-4-methylcoumarin (Suc-Leu-Leu-Val-Tyr-AMC) was used for measuring CT-L activity, t-butoxycarbonyl- Leu-Arg-Arg-7-amino-4-methylcoumarin (Boc-Leu-Arg-Arg-AMC) for T-L activity, and benzyloxycarbonyl-L-leucyl-L-leucyl-L-glutamyl-7-amino-4-methylcoumarin (Z-Leu-Leu-Glu-AMC) for C-L activity.” left out

C-L subunit activity = experiment: C-L proteasome activity in RBCs of treated mice; format: in vivo, mouse; conditions: FV-162 30 mg/ml as printed in Figure 5e legend
NOD/SCID mice = experiment: Dose tolerance studies / MTD in mice; conditions: 30 mg/kg daily by oral gavage, up to 8 days, NOD/SCID mice
Procedure: NOD/SCID mice were administered FV-162 (30 mg/kg daily, 7 days/week) in a 5% DMSO, 20% Cremophor vehicle by oral gavage or ONX-0912 (30 mg/kg daily, 7 days/week) in a 5% DMSO, 20% Cremophor vehicle by oral gavage for a week. Mice were monitored for changes in body weight, behavior, and physical appearance.

T-L subunit activity = experiment: T-L proteasome activity in RBCs of treated mice; format: in vivo, mouse; conditions: FV-162 30 mg/ml as printed in Figure 5e legend
[2] = tested on: 10 human myeloma cell lines; experiment: MTS cell growth and viability assay; format: cell-based; conditions: 72 h
Procedure: Human multiple myeloma cell lines 8226, H929, JJN3, KMH11, KMS11, KMS18, LP1, MM.1 S, OPM2, and U266 were grown in Iscove's modified Dulbecco's medium (IMDM). Cell lines were authenticated with short tandem repeat method in September 2011. In addition, cell lines were continually monitored by morphological inspection. Primary mononuclear cells were isolated from peripheral blood or bone marrow samples from multiple myeloma patients at the Princess Margaret Cancer Centre (Toronto, ON, Canada) by Ficoll density gradient centrifugation and cultured in IMDM. All cell culture media were obtained from the Ontario Cancer Institute Tissue Culture Media Facility (Toronto, ON, Canada) and were supplemented with 10% fetal calf serum, 100 μg/ml penicillin, and 100 μg/ml streptomycin (Hyclone, Logan, UT, USA). […]
Cellular viability was primarily assessed by MTS assay according to the manufacturer's instructions (Promega, Madison, WI, USA). […] Cell viability was independently confirmed by reading the optical density at 490 nm and by exclusion of trypan blue stain (Invitrogen, Burlington, ON, Canada). Viability of primary mononuclear cells was determined by Annexin V–fluorescein isothiocyanate and propidium iodide co-staining (Biovision Research Products, Mountain View, CA, USA) using flow cytometry according to the manufacturer's instructions after 48 h of treatment with inhibitors or vehicle control.

patients = conditions: cited from earlier work

## Cc1ncc(C(=O)N[C@@H](COC(F)F)C(=O)N[C@@H](COC(F)F)C(=O)N[C@@H](Cc2ccccc2)C(=O)[C@@]2(C)CO2)s1 [FV-162]
[1]; 0.5 μM
  CD138- cells to which compound was toxic: 50%
[1]
  sensitivity of CD138- normal hematopoietic cells: largely insensitive
CT-L proteasome activity
  duration of inhibition of proteasome activity in isolated RBCs: sustained for up to 24 h
CT-L proteasome activity; single oral dose 30 mg/kg
  inhibition of CT-L activity in RBCs compared with ONX-0912 (30 mg/kg): less inhibition of the CT-L activity than ONX-0912
CT-L proteasome activity; single oral dose 100 mg/kg (half the MTD)
  inhibition of CT-L activity in RBCs compared with ONX-0912 (30 mg/kg): performed similarly to almost the MTD of ONX-0912
CT-L proteasome subunit; in 6 of the 10 cell lines
  potency in CT-L inhibition relative to ONX-0912: over five times more potent than ONX-0912
CT-L proteasome subunit; total cell lysates, all 10 human myeloma cell lines tested
  IC50: < 60 nM
C-L subunit activity
  inhibition of C-L subunit activity in murine RBCs: did not inhibit
NOD/SCID mice
  toxicity, behavior and body weight on daily dosing: no evidence of toxicity, behavioral change, or loss of body weight
T-L subunit activity
  inhibition of T-L subunit activity in murine RBCs: did not inhibit
[2]; all 10 human myeloma cell lines
  cell growth and viability (MTS): decreased cell growth and viability
[2]; in 5 of the 10 cell lines
  potency in MTS assay relative to ONX-0912: over two times more potent than ONX-0912

## COC[C@H](NC(=O)c1cnc(C)s1)C(=O)N[C@@H](COC)C(=O)N[C@@H](Cc1ccccc1)C(=O)[C@@]1(C)CO1 [ONX-0912, reference compound]
[1]
  sensitivity of CD138- normal hematopoietic cells: no adverse effects
CT-L proteasome activity
  duration of inhibition of proteasome activity in isolated RBCs: sustained for up to 24 h
patients; administered twice daily
  MTD (not reached at cumulative doses up to): > 190 mg/day
patients; once-daily oral, patients with advanced refractory or recurrent solid tumors
  MTD: 150 mg/day
